Data from patent publication US20210161868A1, “ANTI-INFLAMMATORY THERAPY IN ARRHYTHMOGENIC CARDIOMYOPATHY (ACM)” (Beth Israel Deaconess Medical Center, Inc., priority 2018, published 2021).

System: hearts of Dsg2^mut/mut mice
Test: Cytokine arrays in mouse hearts
Assay type: in vivo
Protocol: Three cohorts of mice at 8 weeks of age were anesthetized and implanted with subcutaneous osmotic mini-pumps (Alzet, Model 1004). These included: 1) Dsg2^mut/mut mice with pumps containing 50 μg/μL Bay11-7082 in a vehicle of 65% DMSO, 15% ethanol, and 20% saline; 2) Dsg2^mut/mut mice with pumps containing an equivalent volume of vehicle; and 3) wildtype mice with pumps containing vehicle. Mice in cohort 1 received 5 mg/kg/day of Bay11-7082 by continuous infusion; those in cohorts 2 and 3 received an equivalent volume of vehicle each day for 4 weeks. At 12 weeks of age, mice were re-anesthetized and new Alzet pumps were implanted for an additional 4 weeks of treatment.
Myocardium from mice was lyzed in RIPA buffer and cardiac myocytes from patient hiPSCs were lysed in TRIzol, and protein in lysates was quantified by standard BCA protein assay. Mouse (R&D Systems, Cat. No. ARY028) and Human (R&D Systems, Cat. No. ARY022B) Proteome Profiler XL Cytokine Arrays were blocked at room temperature for 1 hour before being incubated overnight at 4° C. with 200 μg of myocardial protein in blocking buffer supplied by manufacturer. Additional arrays were incubated overnight at 4° C. with 200 μl of hiPSC-cardiac myocyte culture medium according to the manufacturer's protocol for cell supernatants. Following overnight incubation, arrays were washed four times (10 minutes/wash), incubated at room temperature for 1 hour with Antibody Detection Cocktail, washed an additional four times (10 minutes/wash), then incubated with 1:2,000 Streptavidin-HRP in blocking buffer for 30 minutes at room temperature. Arrays were then washed four times and chemiluminescence was performed using the Chemi Reagent Mix included in the assay kits.
Data are presented as mean±SEM. Specific n-values are inset within each figure legend or table. P<0.05 was deemed statistically significant. As appropriate, associations between continuous dependent variables were tested using Student's paired/unpaired t-tests (binary independent variables) or one-way ANOVA (two or more variables). In the in vivo studies involving Dsg2^mut/mut mice, correlations between (i) ejection fraction and the amounts of myocardial fibrosis and apoptosis, (ii) cytokine expression levels and ejection fraction, and (iii) the levels of each individual cytokine against all other cytokines were made using Pearson's r analysis. Changes in cytokine levels in WT vs. Dsg2^mut/mut and/or untreated vs. Bay 11-7082-treated Dsg2^mut/mut mice were analyzed by two-way ANOVA with Tukey's post-hoc testing. The levels of any cytokines showing a significant change were then correlated with ejection fraction in each animal using Pearson's r analysis. In addition, the levels of all cytokines (n=111) were analyzed in a Pearson's correlation matrix table to correlate the expression level of each individual cytokine with all other cytokines.

[1] = Dsg2^mut/mut (Bay11-7082) vs Dsg2^mut/mut
[2] = Dsg2^mut/mut (Bay11-7082) vs WT
[3] = Dsg2^mut/mut mice with pumps containing 50 μg/μL Bay11-7082

Cc1ccc(S(=O)(=O)/C=C/C#N)cc1 [Bay 11-7082]
2-4: CXCL13/BLC/BCA-1 expression [2] | IL-15 expression [2] | IL-33 expression [2] | Myeloperoxidase expression [2] | Resistin expression [2]
>10: LIX expression [2] | P-Selectin/CD62P expression [2]
>20: M-CSF expression [2]
blunted or fully normalized: increased expression of cytokines in Dsg2^mut/mut hearts (in most, but not all, cases)
4-6: HGF expression [2] | MMP-2 expression [2] | Osteopontin (OPN) expression [2]
reduced: OPN expression [3]
markedly reduced: LIX (CXCL5) level [3]
6-10: IL-1β (IL-1F2) expression [2] | Pref-1/DLK-1/FA1 expression [2] | Proliferin expression [2] | Reg3G expression [2] | Serpin E1/PAI-1 expression [2] | VCAM-1/CD106 expression [2]
<1: Adiponectin expression [1] | Amphiregulin expression [1] | Angiopoietin-1 expression [1] | Angiopoietin-like 3 expression [1] | BAFF/BLyS/TNFSF13B expression [1] | C1qR1/CD93 expression [1] | C-Reactive Protein/CRP expression [1] | CCL2/JE/MCP-1 expression [1] | CCL3/CCL4/MIP-1a/B expression [1] | CCL5/RANTES expression [1] | CCL6/C10 expression [1] | CCL17/TARC expression [1] | CCL19/MIP-3B expression [1] | CCL20/MIP-3a expression [1] | CCL21/6Ckine expression [1] | CCL22/MDC expression [1] | CD40/TNFRSF5 expression [1] | CD160 expression [1] | CX3CL1/Fractalkine expression [1] | CXCL9/MIG expression [1] | CXCL13/BLC/BCA-1 expression [1] | CXCL16 expression [1] | Chemerin expression [1] | Chitinase 3-like 1 expression [1] | Coagulation Factor III/Tissue Factor expression [1] | Complement Component C5/C5a expression [1] | Complement Factor D expression [1] | Cystatin C expression [1] | DKK-1 expression [1] | DPPIV/CD26 expression [1] | E-Selectin/CD62E expression [1] | EGF expression [1] | Endoglin/CD105 expression [1] | Endostatin expression [1] | Eotaxin (CCL11) expression [1] | FGF acidic expression [1] | FGF-21 expression [1] | FLt-3 Ligand expression [1] | Fetuin A/AHSG expression [1] | G-CSF expression [1] | GDF-15 expression [1] | GM-CSF expression [1] | Gas 6 expression [1] | HGF expression [1] | I-TAC (Cxcl11) expression [1] | IFN-y expression [1] | IGFBP-1 expression [1] | IGFBP-2 expression [1] | IGFBP-3 expression [1] | IGFBP-5 expression [1] | IGFBP-6 expression [1] | IL-1a (IL-1F1) expression [1] | IL-1ra (IL-1F3) expression [1] | IL-1β (IL-1F2) expression [1] | IL-2 expression [1] | IL-3 expression [1] | IL-4 expression [1] | IL-5 expression [1] | IL-6 expression [1] | IL-7 expression [1] | IL-10 expression [1] | IL-11 expression [1] | IL-12 p40 expression [1] | IL-13 expression [1] | IL-15 expression [1] | IL-17a expression [1] | IL-22 expression [1] | IL-23 expression [1] | IL-27 p28 expression [1] | IL-28A/B expression [1] | IL-33 expression [1] | IP-10 (CXL10/CRG-2) expression [1] | KC (CXCL1) expression [1] | LIF expression [1] | LIX expression [1] | Leptin expression [1] | Lipocalin-2/NGAL expression [1] | MCP-5 (CCL12) expression [1] | MIP-2 (CXCL2) expression [1] | MMP-9 expression [1] | Myeloperoxidase expression [1] | Osteopontin (OPN) expression [1] | Osteoprotegerin/TNFRSF11B expression [1] | P-Selectin/CD62P expression [1] | PD-EGF/Thymidine phosphorylase expression [1] | PDGF-BB expression [1] | Pentraxin 2/SAP expression [1] | Pentraxin 3/TSG-14 expression [1] | Periostin/OSF-2 expression [1] | Pref-1/DLK-1/FA1 expression [1] | Proliferin expression [1] | RAGE expression [1] | RBP4 expression [1] | Reg3G expression [1] | Resistin expression [1] | Serpin E1/PAI-1 expression [1] | Serpin F1/PEDF expression [1] | TNF-α expression [1] | WISP-1/CCN4 expression [1] | sICAM-1 (CD54) expression [1] | Adiponectin expression [2] | Amphiregulin expression [2] | Angiopoietin-1 expression [2] | Angiopoietin-2 expression [2] | Angiopoietin-like 3 expression [2] | BAFF/BLyS/TNFSF13B expression [2] | C1qR1/CD93 expression [2] | C-Reactive Protein/CRP expression [2] | CCL2/JE/MCP-1 expression [2] | CCL3/CCL4/MIP-1a/B expression [2] | CCL5/RANTES expression [2] | CCL6/C10 expression [2] | CCL17/TARC expression [2] | CCL19/MIP-3B expression [2] | CCL20/MIP-3a expression [2] | CCL21/6Ckine expression [2] | CCL22/MDC expression [2] | CD14 expression [2] | CD40/TNFRSF5 expression [2] | CD160 expression [2] | CX3CL1/Fractalkine expression [2] | CXCL9/MIG expression [2] | CXCL16 expression [2] | Chemerin expression [2] | Chitinase 3-like 1 expression [2] | Coagulation Factor III/Tissue Factor expression [2] | Complement Component C5/C5a expression [2] | Complement Factor D expression [2] | Cystatin C expression [2] | DKK-1 expression [2] | E-Selectin/CD62E expression [2] | Endoglin/CD105 expression [2] | Endostatin expression [2] | Eotaxin (CCL11) expression [2] | FGF acidic expression [2] | FGF-21 expression [2] | FLt-3 Ligand expression [2] | Fetuin A/AHSG expression [2] | GDF-15 expression [2] | GM-CSF expression [2] | Gas 6 expression [2] | I-TAC (Cxcl11) expression [2] | IGFBP-2 expression [2] | IGFBP-3 expression [2] | IGFBP-5 expression [2] | IGFBP-6 expression [2] | IL-1a (IL-1F1) expression [2] | IL-2 expression [2] | IL-3 expression [2] | IL-4 expression [2] | IL-5 expression [2] | IL-6 expression [2] | IL-7 expression [2] | IL-10 expression [2] | IL-11 expression [2] | IL-17a expression [2] | IL-22 expression [2] | IL-23 expression [2] | IL-27 p28 expression [2] | IP-10 (CXL10/CRG-2) expression [2] | KC (CXCL1) expression [2] | LIF expression [2] | Lipocalin-2/NGAL expression [2] | MCP-5 (CCL12) expression [2] | MIP-2 (CXCL2) expression [2] | MMP-3 expression [2] | MMP-9 expression [2] | Osteoprotegerin/TNFRSF11B expression [2] | PD-EGF/Thymidine phosphorylase expression [2] | Pentraxin 3/TSG-14 expression [2] | Periostin/OSF-2 expression [2] | Proprotein Convertase 9/PCSK9 expression [2] | RAGE expression [2] | Serpin F1/PEDF expression [2] | TIM-1/KIM-1/HAVCR expression [2] | Thrombopoeitin expression [2] | VEGF expression [2] | WISP-1/CCN4 expression [2]
1-2: Angiopoietin-2 expression [1] | CD14 expression [1] | LDL R expression [1] | M-CSF expression [1] | MMP-2 expression [1] | MMP-3 expression [1] | Proprotein Convertase 9/PCSK9 expression [1] | TIM-1/KIM-1/HAVCR expression [1] | Thrombopoeitin expression [1] | VCAM-1/CD106 expression [1] | VEGF expression [1] | DPPIV/CD26 expression [2] | EGF expression [2] | G-CSF expression [2] | IFN-y expression [2] | IGFBP-1 expression [2] | IL-1ra (IL-1F3) expression [2] | IL-12 p40 expression [2] | IL-13 expression [2] | IL-28A/B expression [2] | LDL R expression [2] | Leptin expression [2] | PDGF-BB expression [2] | Pentraxin 2/SAP expression [2] | RBP4 expression [2] | TNF-α expression [2] | sICAM-1 (CD54) expression [2]
